Measurements: patent US5481021A, “Phenyl amidines derivatives useful as platelet aggregation inhibitors” (G. D. Searle & Co., priority 1994, dated 1996)

What was measured:
[1] = tested on: Platelet aggregation in dog PRP; experiment: In-Vitro Platelet Aggregation in PRP (ADP induced); type: cell-based; conditions: Canis lupus familiaris; for inhibition at 10 µM: ADP, test concentration 1 × 10^-5; for IC50: ADP 50 μm, 37° C.
Experimental: In-Vitro Platelet Aggregation in PRP
(§1) Healthy male or female dogs were fasted for 8 hours prior to drawing blood; then 30 ml whole blood was collected using a butterfly needle and 30 cc plastic syringe with 3 ml of 0.129M buffered sodium citrate (3.8%). The syringe was rotated carefully as blood was drawn to mix the citrate. Platelet-rich plasma (PRP) was prepared by centrifugation at 975×g for 3.17 minutes at room temperature, allowing the centrifuge to coast to a stop without braking. The PRP was removed from the blood with a plastic pipette and placed in a plastic capped, 50 ml Corning conical sterile centrifuge tube which was held at room temperature. Platelet poor plasma (PPP) was prepared by centrifuging the remaining blood at 2000×g for 15 minutes at room temperature allowing the centrifuge to coast to a stop without braking. The PRP was adjusted with PPP to a count of 2-3×10^8 platelets per ml. 400 for 5-(p-cyanophenyl)pentanoic acid in Section C of Example 1.
as §1, with “400 μl of the PRP preparation and 50 μl of the compound to be tested or saline were preincubated” for “400”, “1 minute at 37° C.” for “5-(p-cyanophenyl)pentanoic acid”, “a BioData aggregometer (BioData, Horsham, Pa.). 50 μl” for “Section C”, “adenosine 5'diphosphate (ADP) (50 μm final concentration) was added to the cuvettes and the aggregation was monitored for 1 minute. All compounds are tested in duplicate. Results are calculated as follows:” for “Example 1.”
Percent of control=[(maximal OD minus initial OD of compound) divided by
(maximal OD minus initial OD of control saline)]×100. The %
inhibition=100-(percent of control).

[2] = tested on: ex vivo collagen induced platelet aggregation; experiment: Inhibition of ex vivo collagen induced aggregation; type: in vivo, dog (Beagle); conditions: dog
Experimental: INHIBITION OF EX VIVO COLLAGEN INDUCED AGGREGATION BY COMPOUNDS OF THE INVENTION
PURPOSE--The purpose of this assay is to determine the effects of antiplatelet compounds on ex vivo collagen induced platelet aggregation when administered either intravenously or orally to dogs.
Pretreatment (control) blood samples are drawn from either conscious or anesthetized dogs (Beagles) and centrifuged to prepare platelet rich plasma (PRP). Aggregatory response to collagen is measured in an aggregometer and used as Control. Compounds are administered, either intragasterically (either by capsule or stomach tube or intravenously. Blood samples are drawn at predetermined intervals after compound administration, PRP prepared and aggregation to collagen determined. Compound inhibition of aggregation is determined by comparing the aggregation response after compound administration to the pretreatment response. The study is continued for a maximum of 24 hours or until the platelet aggregation returns to control levels. (If aggregation is still inhibited after 7 hours, a blood sample is drawn the following morning and tested.) Duration of activity is determined by the length of time platelet aggregation is inhibited after compound administration.

[3] = molecular target: T1, fibrinogen binding to platelets (gpIIb/IIIa) (Homo sapiens, UniProt P05106+P08514); experiment: Fibrinogen Binding Assay (125I-fibrinogen binding to ADP-activated platelets); conditions: ADP 10 μM, 125I-fibrinogen 0.3 μM, 40 min at 37° C., read-out: Human Fg binding IC50
T1 construct: endogenous in cells
T1 sequence (P08514 32-887 limits assumed): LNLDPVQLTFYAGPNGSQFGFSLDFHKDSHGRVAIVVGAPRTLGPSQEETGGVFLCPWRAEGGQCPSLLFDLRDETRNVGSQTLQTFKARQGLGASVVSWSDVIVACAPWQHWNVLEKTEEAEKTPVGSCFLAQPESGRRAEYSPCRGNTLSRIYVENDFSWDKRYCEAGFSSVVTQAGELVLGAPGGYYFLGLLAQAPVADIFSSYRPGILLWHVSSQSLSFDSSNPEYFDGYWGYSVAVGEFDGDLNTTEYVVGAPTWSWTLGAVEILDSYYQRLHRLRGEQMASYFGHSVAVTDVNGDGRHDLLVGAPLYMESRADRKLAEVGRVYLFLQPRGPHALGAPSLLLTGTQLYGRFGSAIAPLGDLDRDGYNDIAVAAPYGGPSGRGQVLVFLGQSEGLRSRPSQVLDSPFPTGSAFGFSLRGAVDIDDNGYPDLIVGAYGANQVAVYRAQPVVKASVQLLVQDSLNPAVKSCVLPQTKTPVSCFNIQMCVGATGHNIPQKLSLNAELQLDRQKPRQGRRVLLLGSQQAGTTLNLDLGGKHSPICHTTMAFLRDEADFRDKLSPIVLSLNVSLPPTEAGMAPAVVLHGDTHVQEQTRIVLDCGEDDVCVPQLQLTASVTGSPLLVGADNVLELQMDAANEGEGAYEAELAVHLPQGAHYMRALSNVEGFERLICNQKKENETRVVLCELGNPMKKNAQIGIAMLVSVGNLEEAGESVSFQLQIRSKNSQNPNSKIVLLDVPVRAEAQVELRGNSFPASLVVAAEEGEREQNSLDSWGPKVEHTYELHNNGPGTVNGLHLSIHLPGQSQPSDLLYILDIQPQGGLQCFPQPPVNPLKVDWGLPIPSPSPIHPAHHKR
T1 sequence (P08514 891-1039 partner limits assumed): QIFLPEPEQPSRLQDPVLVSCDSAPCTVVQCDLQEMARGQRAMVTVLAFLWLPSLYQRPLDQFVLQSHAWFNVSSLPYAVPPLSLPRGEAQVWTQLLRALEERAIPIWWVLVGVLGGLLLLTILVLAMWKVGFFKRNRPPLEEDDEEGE
T1 sequence (P05106 27-788): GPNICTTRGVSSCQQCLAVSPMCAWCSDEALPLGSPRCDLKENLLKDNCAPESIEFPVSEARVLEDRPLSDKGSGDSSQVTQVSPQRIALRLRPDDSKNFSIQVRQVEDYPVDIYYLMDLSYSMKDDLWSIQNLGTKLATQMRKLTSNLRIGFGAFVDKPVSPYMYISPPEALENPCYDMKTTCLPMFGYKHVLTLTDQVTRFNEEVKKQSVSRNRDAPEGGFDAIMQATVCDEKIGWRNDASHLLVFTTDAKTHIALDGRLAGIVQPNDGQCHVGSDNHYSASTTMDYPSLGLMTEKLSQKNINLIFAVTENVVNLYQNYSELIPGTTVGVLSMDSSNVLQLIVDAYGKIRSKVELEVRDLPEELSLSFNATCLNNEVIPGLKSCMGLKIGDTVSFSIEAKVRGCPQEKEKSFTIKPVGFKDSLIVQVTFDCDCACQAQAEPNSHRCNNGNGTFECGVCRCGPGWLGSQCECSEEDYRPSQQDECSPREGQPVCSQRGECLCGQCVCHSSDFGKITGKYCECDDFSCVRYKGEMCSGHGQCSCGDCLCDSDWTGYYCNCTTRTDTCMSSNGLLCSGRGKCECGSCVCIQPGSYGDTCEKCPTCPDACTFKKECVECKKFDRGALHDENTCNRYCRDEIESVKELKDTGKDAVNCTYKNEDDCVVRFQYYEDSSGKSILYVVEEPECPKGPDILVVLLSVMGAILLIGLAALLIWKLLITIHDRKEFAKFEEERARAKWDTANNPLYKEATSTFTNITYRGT
Experimental: Fibrinogen binding was performed essentially as described by Plow et al., Blood 70, 110-115 (1987). Briefly, blood from humans who had not been given any antiplatelet drugs in the previous two weeks was collected into 1/10th volume of CCD buffer (100 mM sodium citrates, 136 mM glucose, pH 6.5). The blood was centrifuged for 3 min at 1000×g and platelet rich plasma was transferred to a plastic tube with a plastic pipet and placed on ice. After 15 minutes, 1/2 volume of ice cold CCD buffer was added and the sample was centrifuged at 900×g for 10 min at 2° C. The supernatant was decanted and the platelet pellet was gently resuspended in 1/2 the original volume of ice cold modified Tyrode's buffer (137 mM NaCl, 2.6 mM KCl, 12 mM NaHCO3, 5.5 mM glucose, 15 mM HEPES, 0.5% BSA, pH 7.4). After incubating for 30 minutes at 37° C., the platelet count was adjusted to 4×10^8 platelets/ml with modified Tyrode's buffer. To test samples (final concentration=1×10^8 platelets/ml) were added in sequence: ADP (10 μM), CaCl2 (2 mM), test compound, and ^125 I-fibrinogen (0.3 μM) to the aforesaid final concentrations in a volume of 200 μl. The samples were incubated for 40 min at 37° C. and 50 μl aliquots were centrifuged at 8,000×g through a 20% sucrose solution (400 μl). The tubes were quick frozen and the tips containing the platelet pellet were cut and assayed for bound ^125 I-fibrinogen by gamma scintillation counting. Specific binding was determined in each test by subtracting from the total binding the amount of ^125 I-fibrinogen bound in the presence of a 60-fold excess of unlabeled fibrinogen.

N=C(N)c1ccc(CC(O)CCC(=O)N[C@@H](CC(=O)O)C(=O)N[C@@H](Cc2ccccc2)C(=O)O)cc1 (stereo partly drawn) [N-[N-[5-[4-(aminoiminomethyl)phenyl]-4-hydroxy-1-oxopentyl]-L-α-aspartyl]-L-phenylalanine] was tested. Which inhibition at 10 µM [1] did it give?
The inhibition at 10 µM was 15%.

With N=C(N)c1ccc(CCCCC(=O)N[C@@H](CC(=O)O)C(=O)N(CCC(=O)O)Cc2ccccc2)cc1 [3S-[[5-[4-(aminoiminomethyl)phenyl]-1-oxopentyl]amino]-4-[(2-carboxyethyl)(phenylmethyl)amino]-4-oxobutanoic acid] as the compound, how does the IC50 [1] read?
Its IC50 is 4300 nM.

What about the inhibition at 10 µM [1] of the same compound?
The inhibition at 10 µM was 100%.

Which IC50 [1] does the source give for N=C(N)c1ccc(CCCCC(=O)N[C@@H](CC(=O)O)C(=O)NCCc2c[nH]c3ccccc23)cc1 [3S-[[5-[4-(aminoiminomethyl)phenyl]-1-oxopentyl]amino]-4-[[2-(1H-indol-3-yl)ethyl]amino]-4-oxobutanoic acid] here?
The IC50 was 280 nM.

What about the inhibition at 10 µM [1] of the same compound?
The inhibition at 10 µM was 100%.

CN(CC(=O)N[C@@H](CC(=O)O)C(=O)N[C@@H](Cc1ccccc1)C(=O)O)C(=O)CCc1ccc(C(=N)N)cc1 [N-[N-[2-[[3-[4-(aminoiminomethyl)phenyl]-1-oxopropyl]methylamino] -1-oxoethyl]-L-α-aspartyl]-L-phenylalanine] was tested. Which IC50 [1] did it give?
The IC50 was 700 nM.

And the inhibition at 10 µM [1]?
The inhibition at 10 µM was 100%.

COC(=O)C[C@H](NC(=O)CCCCc1ccc(C(=N)N)cc1)C(=O)N[C@@H](Cc1ccccc1)C(=O)OC [N-[5-[4-(aminoiminomethyl)phenyl]-1-oxopentyl]-N-L-α-aspartyl-L-phenylalanine, dimethyl ester] was tested. Which IC50 [1] did it give?
Its IC50 is 400 nM.

What about the inhibition at 10 µM [1] of the same compound?
Its inhibition at 10 µM is 100%.

What does the source list for N=C(N)c1ccc2cc(OCC(=O)N[C@@H](CC(=O)O)C(=O)N[C@@H](Cc3ccccc3)C(=O)O)ccc2c1 [N-[N-[2-[[6-(aminoiminomethyl)-2-naphthalenyl]oxy]-1-oxoethyl]-L-α-aspartyl]-L-phenylalanine]?
IC50 [1]: 1100 nM; inhibition at 10 µM [1]: 100%

Which inhibition at 10 µM [1] does the source give for N=C(N)c1ccc(CCCC(=O)N[C@@H](CC(=O)O)C(=O)N[C@@H](Cc2ccccc2)C(=O)O)cc1 [N-[N-[4-[4-(aminoiminomethyl)phenyl]-1-oxobutyl]-L-α-aspartyl]-L-phenylalanine] here?
Its inhibition at 10 µM is 4%.

CCOC(=O)C[C@H](NC(=O)CCCCc1ccc(C(=N)N)cc1)C(=O)N[C@@H](Cc1ccccc1)C(=O)OCC [N-[N-[5-[4-(aminoiminomethyl)phenyl]-1-oxopentyl]-L-α-aspartyl]-L-phenylalanine, diethyl ester] was tested. Which “Ex-vivo collagen induced aggregation, Max % Inhibition” value ([2]; .025 mg/kg, IG) did it give?
The value was 39%.

With COc1ccc(CCNC(=O)[C@H](CC(=O)O)NC(=O)CCCCc2ccc(C(=N)N)cc2)cc1 [3S [[5-[4-(aminoiminomethyl)phenyl]-1-oxopentyl]amino]-4-[[2-4-(methoxyphenyl)ethyl]amino]-4-oxobutanoic acid] as the compound, how does the IC50 [1] read?
The IC50 was 420 nM.

What about the inhibition at 10 µM [1] of the same compound?
Its inhibition at 10 µM is 100%.

With N=C(N)c1cccc(/C=C\CCCC(=O)N[C@@H](CC(=O)O)C(=O)N[C@@H](Cc2ccccc2)C(=O)O)c1 [N-[N-[6-[3-(aminoiminomethyl)phenyl]-1-oxo-5Z-hexenyl]-L-α-aspartyl]-L-phenylalanine] as the compound, how does the IC50 [1] read?
Its IC50 is 4300 nM.

And the inhibition at 10 µM [1]?
Its inhibition at 10 µM is 100%.

What about the IC50 [3] of the same compound?
Its IC50 is 600 nM.

What does the source list for CC(C)[C@H](NC(=O)[C@H](CC(=O)O)NC(=O)CCCCc1ccc(C(=N)N)cc1)C(=O)O [N-[5-[4-(aminoiminomethyl)phenyl]-1-oxopentyl]-N-L-α-aspartyl-L-valine]?
IC50 [1]: 130 nM; inhibition at 10 µM [1]: 100%

Which IC50 [1] does the source give for N=C(N)c1ccc(CCCCC(=O)N[C@@H](CC(=O)O)C(=O)N(CCC(=O)O)CCc2ccccc2)cc1 [3S-[[5-[4-(Aminoiminomethyl)phenyl]-1-oxopentyl]amino]-4-[(2-carboxyethyl)(2-phenylethyl)amino]-4-oxobutanoic acid] here?
The IC50 was 10000 nM.

And the inhibition at 10 µM [1]?
The inhibition at 10 µM was 53%.

COc1ccc(CCN(CCC(=O)O)C(=O)[C@H](CC(=O)O)NC(=O)CCCCc2ccc(C(=N)N)cc2)cc1 [3S-[[5-[4-(aminoiminomethyl)phenyl]-1-oxopentyl)amino]-4-[(2-carboxyethyl)(2-(4-methoxyphenyl)ethyl]amino]-4-oxobutanoic acid] was tested. Which inhibition at 10 µM [1] did it give?
The inhibition at 10 µM was 66%.

Which IC50 [1] does the source give for N=C(N)c1ccc(/C=C\CCC(=O)N[C@@H](CC(=O)O)C(=O)N[C@@H](Cc2ccccc2)C(=O)O)cc1 [N-[N-[5-[4-(aminoiminomethyl)phenyl]-1-oxo-4Z-pentenyl]-L-α-aspartyl]-L-phenylalanine] here?
Its IC50 is 600 nM.

And the inhibition at 10 µM [1]?
The inhibition at 10 µM was 100%.

Which IC50 [1] does the source give for CN(C(=O)[C@H](CC(=O)O)NC(=O)CCCCc1ccc(C(=N)N)cc1)[C@@H](Cc1ccccc1)C(=O)O [N-[N-[5-[4-(aminoiminomethyl)phenyl]-1-oxopentyl]-L-α-aspartyl]-N-methyl-L-phenylalanine] here?
The IC50 was 1500 nM.

What about the inhibition at 10 µM [1] of the same compound?
Its inhibition at 10 µM is 100%.

For CC(C)CNC(=O)[C@H](CC(=O)O)NC(=O)CCCCc1ccc(C(=N)N)cc1 [3S-[[5-[4-(aminoiminomethyl)phenyl]-1-oxopentyl]amino]-4-[(2-methylpropyl)amino]-4-oxobutanoic acid], which IC50 [1] is on record?
Its IC50 is 700 nM.

What about the inhibition at 10 µM [1] of the same compound?
The inhibition at 10 µM was 100%.

And the “Ex-vivo collagen induced aggregation, Max % Inhibition” value ([2]; 0.1 mg/kg, IV)?
The value was 100%.

How did the inhibition at 10 µM [1] turn out when CC(C)CN(CCC(=O)O)C(=O)[C@H](CC(=O)O)NC(=O)CCCCc1ccc(C(=N)N)cc1 [3S-[[5-[4-(aminoiminomethyl)phenyl]-1-oxopentyl]amino]-4-[(2-carboxyethyl)(2-methylpropyl)amino]-4-oxobutanoic acid] was run?
Its inhibition at 10 µM is 14%.

N=C(N)c1cccc(CCCCC(=O)N[C@@H](CC(=O)O)C(=O)N[C@@H](Cc2ccccc2)C(=O)O)c1 [N-[N-[5-[3-(aminoiminomethyl)phenyl-1-oxopentyl]-L-α-aspartyl]-L-phenylalanine] was tested. Which inhibition at 10 µM [1] did it give?
Its inhibition at 10 µM is 25%.

Which results are given for N=C(N)c1ccc(CCCCC(=O)N[C@@H](CC(=O)O)C(=O)NCCc2ccccc2)cc1 [3 S-[[5-[4-(aminoiminomethyl)phenyl]-1-oxopentyl]amino]-4-oxo-4-[(2-phenylethyl)amino]butanoic acid]?
IC50 [1]: 1900 nM; inhibition at 10 µM [1]: 100%; IC50 [3]: 200 nM

Which IC50 [1] does the source give for N=C(N)c1ccc2cc(CCC(=O)N[C@@H](CC(=O)O)C(=O)N[C@@H](Cc3ccccc3)C(=O)O)ccc2c1 [N-[N-[3-[6-(aminoiminomethyl)-2-naphthalenyl]-1-oxopropyl]-L-α-aspartyl]-L-phenylalanine] here?
The IC50 was 5500 nM.

What about the inhibition at 10 µM [1] of the same compound?
Its inhibition at 10 µM is 100%.

For N=C(N)c1ccc(CC(=O)CCC(=O)N[C@@H](CC(=O)O)C(=O)N[C@@H](Cc2ccccc2)C(=O)O)cc1 [N-[N-[5-[4-(aminoiminomethyl)phenyl]-1,4-dioxopentyl]-L-α-aspartyl]-L-phenylalanine], which IC50 [1] is on record?
Its IC50 is 180 nM.

And the inhibition at 10 µM [1]?
The inhibition at 10 µM was 100%.
